Laboratory results taken from patent US12172995B2, “Substituted indole and indazole compounds” (BRISTOL-MYERS SQUIBB COMPANY, priority 2018, dated 2024).

Key:
Format in all cases: cell-based
[1] = molecular target: T1, human TLR8 (Homo sapiens, UniProt Q9NR97); experiment: TLR8 inhibition reporter assay (HEK-Blue SEAP); settings: HEK-Blue cells overexpressing human TLR8, stimulated with R848 15.9 μM, 22 hour incubation
T1 construct: host or cells: HEK-Blue cells
T1 sequence (Q9NR97 27-1041): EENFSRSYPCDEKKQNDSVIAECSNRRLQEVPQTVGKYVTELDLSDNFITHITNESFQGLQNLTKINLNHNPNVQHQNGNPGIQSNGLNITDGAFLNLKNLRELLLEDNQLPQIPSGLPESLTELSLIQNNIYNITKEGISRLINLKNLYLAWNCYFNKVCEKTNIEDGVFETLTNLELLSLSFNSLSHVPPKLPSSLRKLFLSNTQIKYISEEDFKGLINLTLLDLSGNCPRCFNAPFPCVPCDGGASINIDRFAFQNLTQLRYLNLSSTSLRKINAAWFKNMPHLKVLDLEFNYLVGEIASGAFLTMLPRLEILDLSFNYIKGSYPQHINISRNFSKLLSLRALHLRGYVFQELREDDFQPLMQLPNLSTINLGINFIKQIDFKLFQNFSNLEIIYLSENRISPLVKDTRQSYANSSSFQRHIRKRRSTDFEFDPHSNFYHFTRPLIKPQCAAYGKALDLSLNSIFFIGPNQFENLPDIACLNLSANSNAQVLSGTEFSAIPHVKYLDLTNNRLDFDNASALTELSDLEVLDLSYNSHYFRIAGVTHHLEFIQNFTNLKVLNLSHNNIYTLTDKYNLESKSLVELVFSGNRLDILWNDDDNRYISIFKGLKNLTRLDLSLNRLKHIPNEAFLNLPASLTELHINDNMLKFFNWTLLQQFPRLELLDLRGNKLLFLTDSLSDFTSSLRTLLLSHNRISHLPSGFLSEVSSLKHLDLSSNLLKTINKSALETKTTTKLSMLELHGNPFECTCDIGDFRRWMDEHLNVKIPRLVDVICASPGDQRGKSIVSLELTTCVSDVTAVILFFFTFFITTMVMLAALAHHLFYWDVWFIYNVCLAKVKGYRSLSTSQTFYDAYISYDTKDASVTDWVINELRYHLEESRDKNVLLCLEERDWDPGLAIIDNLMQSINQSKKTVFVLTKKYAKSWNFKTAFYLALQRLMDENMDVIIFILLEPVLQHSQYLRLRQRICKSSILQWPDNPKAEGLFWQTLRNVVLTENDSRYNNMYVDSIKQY
Outline: (§1)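 Cells are seeded, given test compound across 0.05 nM to 50 μM, and after 30 min at room temperature stimulated with the receptor's agonist (gardiquimod 7.5 μM, R848 15.9 μM or ODN2006 5 nM for TLR7, 8, 9). SEAP is measured after 22 h at 37 °C.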

[2] = molecular target: T2, human TLR7 (Homo sapiens, UniProt Q9NYK1); experiment: TLR7 inhibition reporter assay (HEK-Blue SEAP); settings: HEK-Blue cells overexpressing human TLR7, stimulated with gardiquimod 7.5 μM, 22 hour incubation
T2 construct: host or cells: HEK-Blue cells
T2 sequence (Q9NYK1 27-1049): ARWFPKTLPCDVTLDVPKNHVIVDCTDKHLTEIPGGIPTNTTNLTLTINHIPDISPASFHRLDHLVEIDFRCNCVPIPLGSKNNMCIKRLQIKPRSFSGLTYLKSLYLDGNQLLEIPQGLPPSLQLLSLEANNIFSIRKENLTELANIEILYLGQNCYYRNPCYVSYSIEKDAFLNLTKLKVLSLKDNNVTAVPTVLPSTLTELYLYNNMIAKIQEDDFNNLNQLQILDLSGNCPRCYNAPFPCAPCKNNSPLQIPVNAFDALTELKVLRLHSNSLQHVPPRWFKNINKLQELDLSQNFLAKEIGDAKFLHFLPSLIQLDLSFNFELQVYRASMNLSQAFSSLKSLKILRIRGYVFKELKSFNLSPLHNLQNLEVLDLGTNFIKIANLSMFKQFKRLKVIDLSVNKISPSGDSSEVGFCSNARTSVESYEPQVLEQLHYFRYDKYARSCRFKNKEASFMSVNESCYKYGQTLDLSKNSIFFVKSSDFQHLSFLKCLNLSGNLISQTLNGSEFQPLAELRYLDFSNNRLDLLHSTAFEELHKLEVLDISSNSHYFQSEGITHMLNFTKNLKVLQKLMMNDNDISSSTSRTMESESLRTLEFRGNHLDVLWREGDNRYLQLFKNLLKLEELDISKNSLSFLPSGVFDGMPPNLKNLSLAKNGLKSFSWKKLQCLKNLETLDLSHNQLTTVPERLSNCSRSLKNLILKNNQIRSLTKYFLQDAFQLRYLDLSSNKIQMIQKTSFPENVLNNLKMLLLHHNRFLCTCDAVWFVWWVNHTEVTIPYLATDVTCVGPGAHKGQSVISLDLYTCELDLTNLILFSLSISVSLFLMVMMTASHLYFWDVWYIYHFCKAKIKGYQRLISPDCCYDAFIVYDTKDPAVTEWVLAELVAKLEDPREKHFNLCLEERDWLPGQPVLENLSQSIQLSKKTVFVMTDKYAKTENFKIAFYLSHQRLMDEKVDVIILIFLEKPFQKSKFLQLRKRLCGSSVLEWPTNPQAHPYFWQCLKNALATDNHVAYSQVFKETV
Outline: as §1

[3] = molecular target: T3, human TLR9 (Homo sapiens, UniProt Q9NR96); experiment: TLR9 inhibition reporter assay (HEK-Blue SEAP); settings: HEK-Blue cells overexpressing human TLR9, stimulated with ODN2006 5 nM, 22 hour incubation
T3 construct: host or cells: HEK-Blue cells
T3 sequence (Q9NR96 26-1032): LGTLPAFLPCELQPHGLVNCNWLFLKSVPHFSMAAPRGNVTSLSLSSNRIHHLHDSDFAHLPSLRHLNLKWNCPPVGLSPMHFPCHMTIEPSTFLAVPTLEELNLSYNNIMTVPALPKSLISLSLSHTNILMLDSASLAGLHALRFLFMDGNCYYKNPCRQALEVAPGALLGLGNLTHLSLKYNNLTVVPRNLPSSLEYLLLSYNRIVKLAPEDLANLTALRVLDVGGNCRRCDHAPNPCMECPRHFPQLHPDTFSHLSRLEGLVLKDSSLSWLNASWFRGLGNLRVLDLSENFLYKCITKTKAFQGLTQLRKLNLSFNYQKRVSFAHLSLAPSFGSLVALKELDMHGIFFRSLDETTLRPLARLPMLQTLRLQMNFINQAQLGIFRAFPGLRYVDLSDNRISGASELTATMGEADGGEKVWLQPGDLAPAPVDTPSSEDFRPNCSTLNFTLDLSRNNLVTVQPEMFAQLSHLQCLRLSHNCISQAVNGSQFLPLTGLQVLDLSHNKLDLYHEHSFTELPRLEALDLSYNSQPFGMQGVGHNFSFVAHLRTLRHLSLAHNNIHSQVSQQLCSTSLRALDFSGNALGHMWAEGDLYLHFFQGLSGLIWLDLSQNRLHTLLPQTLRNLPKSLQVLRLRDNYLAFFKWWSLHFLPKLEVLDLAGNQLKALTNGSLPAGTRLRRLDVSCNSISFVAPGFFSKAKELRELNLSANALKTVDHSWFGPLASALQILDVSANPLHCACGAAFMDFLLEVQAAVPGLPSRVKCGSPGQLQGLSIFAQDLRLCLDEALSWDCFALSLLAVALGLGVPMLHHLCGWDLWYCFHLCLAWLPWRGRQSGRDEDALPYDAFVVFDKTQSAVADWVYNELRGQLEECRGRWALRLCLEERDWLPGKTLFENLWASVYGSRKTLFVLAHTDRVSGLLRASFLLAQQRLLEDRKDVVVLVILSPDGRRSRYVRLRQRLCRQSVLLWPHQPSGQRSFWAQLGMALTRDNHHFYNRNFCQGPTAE
Outline: as §1

Row | SMILES | IC50 [1] | IC50 [2] | IC50 [3]
1 | Cc1cc(-c2cc(C)c3ncnn3c2)cc2[nH]nc(C3CCN(C4CCOCC4)CC3)c12 [Example 78, 8-methyl-6-(4-methyl-3-(1-(tetrahydro-2H-pyran-4-yl)piperidin-4-yl)-1H-indazol-6-yl)-[1,2,4]triazolo[1,5-a]pyridine] | 252 nM | 92.2 nM | 24500 nM
2 | Cc1cc2c(C3CCN(C(=O)CN(C)C)CC3)n[nH]c2cc1-c1cc(C)c2ncnn2c1 [Example 20, 2-(dimethylamino)-1-(4-(5-methyl-6-(8-methyl-[1,2,4]triazolo[1,5-a]pyridin-6-yl)-1H-indazol-3-yl)piperidin-1-yl)ethan-1-one] | 3.8 nM | 24.6 nM | 4420 nM
3 | Cc1cc2c(C3CCN(C4COC4)CC3)n[nH]c2cc1-c1cc(C)c2ncnn2c1 [Example 73, 8-methyl-6-(5-methyl-3-(1-(oxetan-3-yl)piperidin-4-yl)-1H-indazol-6-yl)-[1,2,4] triazolo[1,5-a]pyridine] | 4.3 nM | 52.3 nM | 9070 nM
4 | Cc1cc2c(C3CCN(C4CCOCC4)CC3)n[nH]c2cc1-c1cc(C)c2ncnn2c1 [Example 21, 8-methyl-6-(5-methyl-3-(1-(tetrahydro-2H-pyran-4-yl)piperidin-4-yl)-1H-indazol-6-yl)-[1,2,4]triazolo[1,5-a]pyridine] | 0.7 nM | 26.2 nM | 4540 nM
5 | Cc1cc(-c2ccc3c(C4CCNCC4)c[nH]c3c2)cn2ncnc12 [Example 12, 8-methyl-6-(3-(piperidin-4-yl)-1H-indol-6-yl)-[1,2,4]triazolo[1,5-a]pyridine] | 31.2 nM | 16.9 nM | 192 nM

Continued, values first:

Row | IC50 [1] | IC50 [2] | IC50 [3] | SMILES
6 | 0.2 nM | 1.3 nM | 9710 nM | Cc1cc(-c2cc3[nH]nc(C4CCC(N5CC6(C5)CS(=O)(=O)C6)CC4)c3cc2C(C)C)cn2ncnc12 (single isomer, unassigned) [Example 142, 6-(4-(5-isopropyl-6-(8-methyl-[1,2,4]triazolo[1,5-a]pyridin-6-yl)-1H-indazol-3-yl)cyclohexyl)-2-thia-6-azaspiro[3.3]heptane 2,2-dioxide]
7 | 149 nM | 289 nM | 1890 nM | Cc1cc(-c2ccc3c(NC4CCNCC4)n[nH]c3c2)cn2ncnc12 [Example 200, 6-(8-methyl-[1,2,4]triazolo[1,5-a]pyridin-6-yl)-N-(piperidin-4-yl)-1H-indazol-3-amine]
8 | 2.3 nM | 2.6 nM | 3260 nM | Cc1cc(-c2cc(C)c3ncnn3c2)cc2[nH]nc(OC3CCC(N(C)C)CC3)c12 (single isomer, unassigned) [Example 180, N,N-dimethyl-4-((4-methyl-6-(8-methyl-[1,2,4]triazolo[1,5-a]pyridin-6-yl)-1H-indazol-3-yl)oxy)cyclohexan-1-amine]
9 | 0.3 nM | 2 nM | 4570 nM | Cc1cc(-c2cc3[nH]nc(C4CCC(N5CCCC5)CC4)c3cc2C(C)C)cn2ncnc12 (single isomer, unassigned) [Example 131, 6-(5-isopropyl-3-(4-(pyrrolidin-1-yl)cyclohexyl)-1H-indazol-6-yl)-8-methyl-[1,2,4]triazolo[1,5-a]pyridine]
10 | 0.37 nM | 2.1 nM | 5910 nM | Cc1cc(-c2cc3[nH]nc(C4CCC(N5CCC6(CCOC6)C5)CC4)c3cc2C(C)C)cn2ncnc12 (single isomer, unassigned) [Example 210, 7-(4-(5-isopropyl-6-(8-methyl-[1,2,4]triazolo[1,5-a]pyridin-6-yl)-1H-indazol-3-yl)cyclohexyl)-2-oxa-7-azaspiro[4.4]nonane]
11 | 0.9 nM | 39 nM | 6340 nM | Cc1cc2c(C3CCC(NCC(=O)N(C)C)CC3)n[nH]c2cc1-c1cc(C)c2ncnn2c1 (single isomer, unassigned) [Example 29, N,N-dimethyl-2-((4-(5-methyl-6-(8-methyl-[1,2,4]triazolo[1,5-a]pyridin-6-yl)-1H-indazol-3-yl)cyclohexyl)amino)acetamide]
